Results published in US10174097B2, “Specific A-beta species-binding peptides for the therapy and/or diagnosis of Alzheimer's dementia” (Forschungszentrum Juelich GmbH, priority 2015, dated 2019).
“Also recorded” adds a separate entry of the source. Where a SMILES comes first, the peptide text is derived from it. [ ]: non-standard residue; d: D form. dPhe(4-F) = N[C@H](Cc1ccc(F)cc1)C(=O)O

Key:
Abeta fibrils [1] = biological target: T1, Abeta fibrils (Homo sapiens, UniProt P05067); assay: ThT assay, formation of ThT positive Abeta fibrils; format: biochemical; settings: for ThT fluorescence during the entire measuring time period: 48 hours, co-incubation with Abeta, FIG. 3
T1 construct: Pre-incubated Abeta was co-incubated with the peptides
T1 sequence (P05067 672-713 limits assumed): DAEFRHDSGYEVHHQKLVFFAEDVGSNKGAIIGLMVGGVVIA

Abeta monomers = biological target: T2, Abeta monomers (Homo sapiens, UniProt P05067); assay: Peptide microarray, binding of FITC Abeta monomers to immobilized peptides; settings: for Binding specificity monomer to fibrils: quotient binding signal to monomers / binding signal to fibrils; for Binding specificity monomer to oligomer: quotient binding signal to monomers / binding signal to oligomers
T2 construct: incubate with FITC Abeta monomers, oligomers, fibrils and FITC for 1 hour at room temperature
T2 sequence (P05067 672-713 limits assumed): as above
Procedure: (§1) The procedure for identifying peptides that bind specifically to amyloid beta monomer or specifically to amyloid beta oligomers and for determining the binding specificity of peptides within the meaning of the present invention can thus be as follows. Peptide microarrays comprising various peptides immobilized on a surface, such as derivatives of D3, are each incubated with different species of Abeta (such as monomers, oligomers and fibrils) labeled with a fluorescent dye. A peptide microarray is incubated with only the fluorescent dye to serve as the control. So as to ensure the reproducibility of the results, the incubation of the peptide microarrays can be carried out at least three times for each species. The binding of the fluorescence-labeled Abeta to the immobilized peptides is detected by way of the fluorescent dye. The more Abeta binds to the peptide, the higher the fluorescence signal is. The measured fluorescence signals of the reproductions are standardized, and the […]. This avoids binding of the fluorescence-labeled Abeta via the dye. The binding signals of an Abeta species to a peptide are then averaged. So as to determine the binding specificity, the quotient of the species to which the peptide is to specifically bind and another species is found.
(§2) Pretreatment of the peptide microarray slides: • briefly dip 3× in ethanol (96%) and then wash with H2O (30 minutes) • briefly dry by way of centrifuging
(§3) Preparation of monomers and oligomers: • size exclusion chromatography according to Johansson et al. 2006 (Johansson, A.-S. et al. Physiochemical characterization of the Alzheimer's disease-related peptides Aβ1-42Arctic and Aβ1-42 wt. FEBS Journal 273, 2618-2630 (2006)). • oligomers were fractionated at 8-9 ml, monomers at 16-17 ml.
(§4) Carrying out the peptide microarray: • incubate with FITC Abeta monomers, oligomers, fibrils and FITC for 1 hour at room temperature • wash: TBS-T briefly 3× (only TBS-T buffer is replaced), 3×10 minutes in a flacon, 3×H2O, 3×10 minutes • dry by way of centrifugation • The binding of the fluorescence-labeled Abeta to the immobilized peptides is detected by way of the fluorescent dye using the microarray reader FLA800 from Fuji Film. The more Abeta binds to the peptide, the higher is the fluorescence signal. • carrier set mode: slides • resolution: 10 μm • scan mode: high sensitivity (slow): scan pixel at 200 mm/s • laser: 473 nm • filter: 530 DF 20 • photomultiplier tube (PMT) HV (%): 100 • images were stored as .tif files
(§5) The software, AIDA Metrix, from Raytest was used to evaluate the fluorescence signals:
(§6) To ensure the reproducibility of the results, the incubation of the peptide microarrays is carried out at least three times for each species.
(§7) The measured fluorescence signals of the reproductions are standardized using a median-based standardization, and the control was subtracted from the signal. This avoided the binding of the fluorescence-labeled Abeta via the dye.
(§8) The binding signals of an Abeta species to a peptide were averaged.
So as to determine the binding specificity, the quotient of the species to which the peptide is to specifically bind and another species is created.
Example: binding specificity of peptide X to Abeta monomers=binding signal of peptides X to monomers/binding signal of peptides X to oligomers.

Abeta oligomers [2] = biological target: T3, Abeta oligomers (Homo sapiens, UniProt P05067); assay: QIAD method, elimination of Abeta oligomers (density gradient centrifugation, RP-HPLC); format: biochemical; settings: for Elimination of Abeta oligomers: ratio of Abeta to peptide of 8:1, fractions 4-6, FIG. 2; for Elimination of Abeta oligomers compared to D3: ratio of Abeta to peptide of 8:1, FIG. 2
T3 sequence (P05067 672-713 limits assumed): as above
Procedure: Using the QIAD method for the quantitative characterization of amyloid peptides and/or proteins in a sample, it was possible to quantify the properties of the substances. Pre-incubated Abeta was co-incubated with the peptides. The different Abeta species were separated by way of density gradient centrifugation and quantified in the individual fractions by way of RP-HPLC Abeta. The elimination of the Abeta oligomers in fractions 4-6 was analyzed.

SH-SY5Y cells [3] = assay: MTT assay on SH-SY5Y cells with Abeta co-incubation; format: cell-based; settings: for Reduction of the toxicity caused by Abeta: co-incubating Abeta with peptide in various concentrations, FIG. 4b; for Reduction of Abeta toxicity compared to D3: respective concentration with D3, FIG. 4b
Excerpt: (§9) No noteworthy toxicity of the peptides according to the invention in therapeutically relevant concentrations was established in the MTT assay on SH-SY5Y cells known to a person skilled in the art (FIG. 4). […] Based on current knowledge, Abeta oligomer is the toxic species.
(§10) The significances are based on the respective concentration with D3 (* p≤0.05; ** p≤0.01; *** p≤0.001; n. s. not significant).

SH-SY5Y cells [4] = assay: MTT assay on SH-SY5Y cells without Abeta co-incubation; format: cell-based; settings: FIG. 4a
Excerpt: as §9, §10

transgenic AD mice = settings: oral administration with drinking water; cited from earlier work
Abeta fibrils [5] = biological target: T1, Abeta fibrils; assay: Peptide microarray, binding of FITC Abeta fibrils to immobilized peptides; settings: 1 hour at room temperature, control subtracted, averaged
Procedure: as §1, §2
Preparation of fibrils: • incubate Abeta over 3 days, centrifuge, discard supernatant and resuspend in buffer (repeat 3 times)
as §4, §5, §6, §7, §8

Abeta oligomers [6] = biological target: T3, Abeta oligomers; assay: Peptide microarray, binding of FITC Abeta oligomers to immobilized peptides; settings: 1 hour at room temperature, control subtracted, averaged
Procedure: as §1, §2, §3, §4, §5, §6, §7, §8

## CC[C@@H](C)[C@@H](NC(=O)[C@@H](CCCNC(=N)N)NC(=O)[C@@H](CCCCN)NC(=O)[C@H](N)CCCNC(=N)N)C(=O)N[C@H](CCCNC(=N)N)C(=O)N[C@H](CC(C)C)C(=O)N[C@@H](C(=O)N[C@H](Cc1ccc(O)cc1)C(=O)N[C@H](Cc1c[nH]cn1)C(=O)N[C@H](Cc1c[nH]c2ccccc12)C(=O)N[C@H](CC(N)=O)C(=O)N[C@H](CCCNC(=N)N)C(N)=O)C(C)C [ANK4, rkrirlvyhwnr] (H-[dR][dK][dR][dI][dR][dL][dV][dY][dH][dW][dN][dR]-NH2)
Abeta fibrils [1]
  ThT fluorescence during the entire measuring time period: slight increase
Abeta monomers
  Binding specificity monomer to fibrils: 4.3
  Binding specificity monomer to oligomer: 3.3
Abeta oligomers [2]
  Elimination of Abeta oligomers: 59±16%
SH-SY5Y cells [3]
  Reduction of the toxicity caused by Abeta: reduced; also recorded: reduction in the Abeta toxicity was achieved
  Reduction of Abeta toxicity compared to D3: more efficient
SH-SY5Y cells [4]
  Toxic effect of the peptide alone on the cells: do not have a toxic effect

## CC(C)C[C@@H](NC(=O)[C@@H](CCCNC(=N)N)NC(=O)[C@H](NC(=O)[C@@H](CCCNC(=N)N)NC(=O)[C@@H](CCCCN)NC(=O)[C@H](N)CCCNC(=N)N)C(C)C)C(=O)N[C@@H](C(=O)N[C@H](Cc1ccc(O)cc1)C(=O)N[C@H](Cc1c[nH]cn1)C(=O)N[C@H](CCCCN)C(=O)N[C@H](CCCCN)C(=O)N[C@H](CCCNC(=N)N)C(N)=O)C(C)C [ANK5, rkrvrlvyhkkr] (H-[dR][dK][dR][dV][dR][dL][dV][dY][dH][dK][dK][dR]-NH2)
Abeta fibrils [1]; after 48 hours
  ThT fluorescence: 1029 rfu
  ThT fluorescence as % of the ThT fluorescence of Abeta control: 53%
Abeta monomers
  Binding specificity monomer to fibrils: 2.2
  Binding specificity monomer to oligomer: 5.9
Abeta oligomers [2]
  Elimination of Abeta oligomers compared to D3: significantly more efficiently than D3
  Elimination of Abeta oligomers: 72±2%
SH-SY5Y cells [3]
  Reduction of the toxicity caused by Abeta: reduced; also recorded: reduction in the Abeta toxicity was achieved
SH-SY5Y cells [4]
  Toxic effect of the peptide alone on the cells: do not have a toxic effect

## CC[C@@H](C)[C@@H](NC(=O)[C@@H](CCCNC(=N)N)NC(=O)[C@@H](CCCCN)NC(=O)[C@H](N)CCCNC(=N)N)C(=O)N[C@H](CCCNC(=N)N)C(=O)N[C@H](CC(C)C)C(=O)N[C@@H](C(=O)N[C@@H](C(=O)N[C@H](CCCCN)C(=O)N[C@H](CCCCN)C(=O)N[C@H](CCCCN)C(=O)N[C@H](CCCNC(=N)N)C(N)=O)[C@H](C)O)C(C)C [ANK6, rkrirlvtkkkr] (H-[dR][dK][dR][dI][dR][dL][dV][dT][dK][dK][dK][dR]-NH2)
Abeta fibrils [1]
  ThT fluorescence during the entire measuring time period: slight increase
Abeta monomers
  Binding specificity monomer to fibrils: 1.9
  Binding specificity monomer to oligomer: 4.1
Abeta oligomers [2]
  Elimination of Abeta oligomers compared to D3: significantly more efficiently than D3
  Elimination of Abeta oligomers: 81±3%
SH-SY5Y cells [3]
  Reduction of the toxicity caused by Abeta: reduced; also recorded: reduction in the Abeta toxicity was achieved
  Reduction of Abeta toxicity compared to D3: more efficient
SH-SY5Y cells [4]
  Toxic effect of the peptide alone on the cells: do not have a toxic effect

## CC[C@@H](C)[C@@H](NC(=O)[C@@H](Cc1c[nH]cn1)NC(=O)[C@H](NC(=O)[C@@H](Cc1ccc(F)cc1)NC(=O)[C@@H](CC(C)C)NC(=O)[C@@H](CCCNC(=N)N)NC(=O)[C@H](NC(=O)[C@@H](CCCNC(=N)N)NC(=O)[C@@H](CCCCN)NC(=O)[C@H](N)CCCNC(=N)N)C(C)C)[C@H](C)O)C(=O)N[C@H](CCCCN)C(=O)N[C@H](CCCNC(=N)N)C(N)=O [ANK7, rkrvrl02thikr] (H-[dR][dK][dR][dV][dR][dL][dPhe(4-F)][dT][dH][dI][dK][dR]-NH2)
Abeta fibrils [1]
  ThT fluorescence during the entire measuring time period: slight increase
Abeta monomers
  Binding specificity monomer to fibrils: 6.8
  Binding specificity monomer to oligomer: 6.4
Abeta oligomers [2]
  Elimination of Abeta oligomers compared to D3: significantly more efficiently than D3
  Elimination of Abeta oligomers: 73±1%
SH-SY5Y cells [3]
  Reduction of the toxicity caused by Abeta: reduced; also recorded: reduction in the Abeta toxicity was achieved
SH-SY5Y cells [4]
  Toxic effect of the peptide alone on the cells: do not have a toxic effect

## rprtrlhthrnr [D3, reference compound]
Transgenic AD mice
  Cognitive abilities of treated transgenic AD mice: significantly improved cognitive abilities
  Plaque in treated transgenic AD mice: considerably less plaque
Abeta monomers; FIG. 1b, quotient of binding signals
  Binding specificity with respect to Abeta monomer: less than 1
Abeta monomers; peptide microarray, FITC Abeta, 1 hour at room temperature, control subtracted, averaged
  Binding signal to Abeta monomers: 0.5 rfu
Abeta monomers
  Binding specificity monomer to fibrils: 0.6
  Binding specificity monomer to oligomer: 0.8
Abeta oligomers [2]
  Elimination of Abeta oligomers: 50±10%
Abeta fibrils [5]
  Binding signal to Abeta fibrils: 0.8 rfu
Abeta oligomers [6]
  Binding signal to Abeta oligomers: 0.6 rfu
